Tests used:
[1] = at physiological pH; cited from earlier work
[2] = 0.5 mg or 2.5 mg liposomal lipid
Procedure: As a control, mice were injected with doxorubicin in the absence of liposomes.

organ uptake (fluorescence Ex=500, Em=600) [2] | SMILES | log P [1]
 | CCCCCCOC(C)c1c(C)c2cc3nc(c4c5[nH]c(cc6nc(cc1[nH]2)C(C)=C6CC)c(C)c5C(=O)C4)[C@@H](CCC(=O)O)[C@@H]3C (some centres unmarked) [HPPH, 2-[1-hexyloxyethyl]-2-devinyl pyropheophorbide-a] | 5.6
no fluorescence was observed | COc1cccc2c1C(=O)c1c(O)c3c(c(O)c1C2=O)C[C@@](O)(C(=O)CO)C[C@@H]3O[C@H]1C[C@H](N)[C@H](O)[C@H](C)O1 [doxorubicin] | 

— patent US10117942B2, “Photoactivatable lipid-based nanoparticles as vehicles for dual agent delivery” (The United States of America, as represented by the …, priority 2013, dated 2018)
